From US20230248744A1, “25-HYDROXYVITAMIN D2 AND/OR D3 FOR USE IN OBESITY” (CARBOGEN AMCIS B.V., priority 2020, published 2023)
Like-named read-outs stand apart in the source and are kept apart here.

Assay: Double-blind randomized crossover pharmacokinetic study, single oral 900 μg vitamin D3 or 25(OH)D3
Format: in vivo, human
Conditions: for Cmax / Tmax / concentration at 14 days / half-life / AUC: both sexes, human, in vivo, po, single oral 900 μg, mean ± SEM; for Cmax / Tmax / half-life / AUC: 900 ug; for concentration at 14 days: 900 μg, read-out: Ctrough (trough level at day 14); for half-life: read-out: T1/2 (elimination half-life) (converted); for blood level of vitamin D3 relative to Cmax: FIG. 4a, turning point after about 2% days, single oral 900 μg vitamin D3
Experimental: The conclusions as presented herein are based on the following experiments: In a double-blinded cross-over study single high dosages (900 μg total in two soft gel capsules containing 450 μg) of either vitamin D3 or 25(OH)D3 were administered to vitamin D-deficient volunteers including healthy controls as well as subjects with a history of malabsorption. At the outset, the BMI was determined. Blood samples were then taken at baseline and at 2, 4, 6, 8, and 12 hours as well as 1, 2, 3, 7, and 14 days after administration (FIG. 2). All the samples were analyzed for their contents in vitamin D3 per se as well as 25(OH)D3. […] In addition, peak levels were more rapidly reached with 25(OH)D3 than with vitamin D3 (see FIG. 5). The immediate increase in serum 25(OH)D3 compared to the delayed increase observed with vitamin D3 supports the concept that 25(OH)D3 is being rapidly absorbed from the small intestine into the portal circulation, whereas vitamin D3 first needs to be incorporated into the chylomicrons which are absorbed into the lymphatic system.
The pharmacokinetic parameters of orally administered 25(OH)D3 and vitamin D3 (both provided for formulation in form of visually identical soft-gel pills) were studied based on the corresponding serum concentration-time curves in healthy adults and adults with a history of intestinal malabsorption (see FIG. 2). Cinical safety has been evaluated by monitoring serum calcium, phosphorus, parathyroid hormone (PTH) and 25(OH)D levels at the beginning and end of the study. Furthermore, the distribution of supplemented 25(OH)D3 (or 25(OH)D2) into adipose tissue and the role it is playing there was also studied.
Serum levels of calcium, phosphorus, albumin, creatinine and intact parathyroid hormone (iPTH) were determined at baseline and at the end of each 14-day pharmacokinetic study (see Table 4). The pharmacokinetic parameters have been determined by evaluating the serum concentration-time curves in patients with malabsorption syndrome and healthy controls (Tables 5 and 6).
The primary outcomes of the study are the serum pharmacokinetic parameters of 25(OH)D3 and vitamin D3 after a single oral administration of 900 μg of each in a double-blind randomized crossover study.
Adult patients (18 years and older) with a history of intestinal malabsorption (n=10) and healthy adult volunteers (n=10); (of both sexes and all ethnicities) has been recruited in this randomized double-blinded crossover study. The BMI has been determined and recorded at baseline. All subjects have been prescreened for 25(OH)D levels to include subjects with 25(OH)D<30 ng/mL. The subjects have been randomized to receive two oral doses of 450 μg taken simultaneously (total 900 μg) of either vitamin D3 or 25(OH)D3. Blood samples were taken at baseline and at 2, 4, 6, 8, 12 hours and days 1, 2, 3, 7 and 14. There was a two weeks washout period before the subject received in a double blinded manner, two oral doses of 450 μg taken simultaneously (total 900 μg) of either 25(OH)D3 or vitamin D3 (depending on which one they took in the randomization) any time after the 2 week washout. Blood samples were taken at baseline and at 2, 4, 6, 8, 12 hours and days 1, 2, 3, 7 and 14 days. Serum levels of calcium, phosphorus, albumin, creatinine, and intact parathyroid hormone (iPTH) were obtained at baseline and at day 14 for each arm (or within a reasonable time if the study participant was unable to come on the exact day).
The individuals participating in the study had, after signing a consent form, been randomized by a computer randomization chart in a blinded manner to receive two oral doses of 450 μg taken simultaneously (total 900 μg) of either vitamin D3 or 25(OH)D3. Blood samples have been taken at baseline and at 2, 4, 6, 8, 12 hours and days 1, 2, 3, 7 and 14. […]

[1] = healthy participants with higher BMI (N = 5)
[2] = healthy participants with lower BMI (N = 5)
[3] = patients with fat malabsorption (N = 6)

C=C1CC[C@H](O)C/C1=C/C=C1\CCC[C@]2(C)[C@@H]([C@H](C)CCCC(C)C)CC[C@@H]12 [vitamin D3, cholecalciferol]
time at which the peak of the serum concentration is reached (FIG. 5, oral 900 μg): about 12 hours
bioavailability in subjects with a history of vitamin D/fat malabsorption (after administration of the respective product, FIGS. 3a and b): reduced
Cmax (healthy participants (N = 10)): 53.5 ± 6 ng/mL
Tmax (healthy participants (N = 10)): 10.4 ± 0.7 h
concentration at 14 days (healthy participants (N = 10)): 0.3 ± 0.3 ng/mL
half-life (healthy participants (N = 10)): 31.4 ± 3.3 h
AUC (healthy participants (N = 10), serum level of the administered substance): 3260 ± 496 ng·h/mL
AUC [1]: 2090 ± 547 ng·h/mL
Cmax [1]: 44.4 ± 9.3 ng/mL
Tmax [1]: 9.6 ± 1 h
concentration at 14 days [1]: 0 ng/mL
half-life [1]: 23.8 ± 3.1 h
AUC [2]: 4430 ± 350 ng·h/mL
Cmax [2]: 62.6 ± 5.7 ng/mL
Tmax [2]: 11.2 ± 0.8 h
concentration at 14 days [2]: 0.6 ± 0.6 ng/mL
half-life [2]: 39 ± 3.4 h
Cmax [3]: 24.3 ± 8.4 ng/mL
Tmax [3]: 11.3 ± 0.7 h
concentration at 14 days [3]: 0.1 ± 0.1 ng/mL
half-life [3]: 28.7 ± 1.5 h
AUC (patients with fat malabsorption (N = 6), serum level of the administered substance): 1180 ± 425 ng·h/mL
blood level of vitamin D3 relative to Cmax (high BMI subjects): ≈ 23 % of Cmax
blood level of vitamin D3 relative to Cmax (low BMI (normal) subjects): 41 % of Cmax and ≈ 41 % of Cmax
